Assay results reported in BindingDB's records for doi:10.1111/j.1747-0285.2010.00965.x (Ataturk University, 2010).
pKi: −log10 of the molar value.

Columns and labels:
Carbonic anhydrase 1 = Carbonic anhydrase 1 (Homo sapiens, UniProt P00915); assay: Esterase Activity Assay; details: pH 7.4; 25 °C
Carbonic anhydrase 2 = Carbonic anhydrase 2 (Homo sapiens, UniProt P00918); assay: Esterase Activity Assay; details: pH 7.4; 25 °C

Carbonic anhydrase 1, sequence (P00915 whole entry): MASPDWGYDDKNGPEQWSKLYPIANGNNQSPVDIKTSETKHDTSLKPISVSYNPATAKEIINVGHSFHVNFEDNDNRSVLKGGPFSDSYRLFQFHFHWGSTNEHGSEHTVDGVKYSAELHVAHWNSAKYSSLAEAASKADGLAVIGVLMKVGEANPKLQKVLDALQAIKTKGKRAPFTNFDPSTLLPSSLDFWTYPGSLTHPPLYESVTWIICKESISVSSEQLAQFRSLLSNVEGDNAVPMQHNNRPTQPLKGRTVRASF

Row | Structure (SMILES) | pKi (Carbonic anhydrase 1) | pKi (Carbonic anhydrase 2)
1 | O=c1c(O)c(-c2ccc(O)c(O)c2)oc2cc(O)cc(O)c12 [2-(3,4-dihydroxyphenyl)-3,5,7-trihydroxy-chromone;hydrate] | 4.00 | 3.98
2 | O=C(O)c1ccc(O)cc1 [4-Hydroxybenzoate, III] | 2.97 | –
3 | O=C(O)c1cc(O)c(O)c(O)c1 [Gallic Acid, F] | 2.98 | 3.12
4 | COc1cc(C(=O)O)cc(OC)c1O [Syringic acid] | 3.04 | 3.16

The remaining molecules from weak to strong by pKi (Carbonic anhydrase 1), led by results:

Row | pKi (Carbonic anhydrase 1) | pKi (Carbonic anhydrase 2) | Structure (SMILES)
5 | 3.36 | 3.27 | O=C(O)/C=C/c1ccc(O)cc1 [p-Coumaric Acid]
6 | 3.39 | 3.68 | COc1cc(/C=C/C(=O)O)ccc1O [Ferulic acid (M5)]
7 | 3.68 | – | O=c1oc2c(O)c(O)cc3c(=O)oc4c(O)c(O)cc1c4c23 [Elagic Acid]
